pIC50: −log10 of the molar value.
Tests used:
[1] = tested on: platelet aggregation in platelet-rich plasma (PRP); assay: Platelet aggregation inhibiting effect (ADP-induced aggregation in platelet-rich plasma); assay type: cell-based, human (healthy man); settings: Homo sapiens, PRP of a healthy person, ADP final concentration 3 μg/ml, 37° C., read-out: IC50 (concentration needed to inhibit the platelet aggregation by 50%)
Protocol: Blood was collected from the elbow vein of a healthy person, to which was added 3.8% sodium citrate of 1/10 times by volume the blood. This was centrifuged at 1000 rpm (150 g) for 10 minutes, and the resulting supernatant of a platelet-rich plasma (PRP) was collected. 2 μl of a solution of a test compound was added to 200 μl of the PRP and kept at 37° C. for 2 minutes while stirring at 1000 rpm. Then, 22 μl of a platelet aggregation promoter of ADP (adenosine diphosphate, final concentration: 3 μg/ml) was added. The degree of platelet aggregation of the sample was measured by colorimetry, using a hematracer (ex Niko Bioscience Co.). The platelet aggregation inhibiting activity of the test compound was represented by IC50, which indicates the concentration of the compound that was needed to inhibit the platelet aggregation by 50%.

Fibrinogen = biological target: T1, Fibrinogen (Homo sapiens, UniProt P05106+P08514); assay: Bonding of platelets to fibrinogen; assay type: binding; settings: activated, paraformaldehyde-fixed platelets; plate coated with fibrinogen 5 μg/ml; 37° C. 2 hours; read-out: IC50, inhibition of bonding of platelets to Fibrinogen
T1 construct: endogenous in cells
Protocol: (§1) 50 ng/ml of PGI2 was added to the PRP sample and subjected to centrifugation at 11000 rpm for 2 minutes, by which the platelets were precipitated. The platelet precipitate was washed with 3.8 mM Hepes buffer (pH 7.4, Tyrode-Hepes buffer) containing 0.14 M NaCl, 2.7 mM KCl, 3.7 mM NaH2 PO4, 0.98 mM MgCl2, 1 mg/ml of glucose, 50 ng/ml of PGI2 and 0.35% BSA. 5 μM epinephrine and 30 μM ADP were added in this order and left at room temperature for 5 minutes, by which the platelets were activated. These were then transferred into a 0.05% paraformaldehyde solution and left at room temperature for 30 minutes, whereby the platelets were fixed in the solution. The thus-fixed platelets were suspended in the Hepes buffer at a concentration of 2×10^8 ml^-1.
(§2) Fibrinogen (ex Kabi Co.), fibronectin (ex Sigma Co.) or collagen (ex Horm Co.) was diluted with 0.1 M NaHCO3 to have a concentration of 5 μg/ml, put into each well of a 96-well microplate (ex Nunc Co.) at 200 μl/well and left at 4° C. overnight. Then, the plate was washed with a phosphate buffered saline (PBS) and blocked with 3% BSA at 37° C. for 1 hour. To the plate were added the platelet suspension (final concentration: 10^8 ml^-1) and a varying concentration of a test compound (total amount: 200 μl/well), and the plate was kept at 37° C. for 2 hours. Then, this was washed with PBS, and 2 μg/ml of an anti-CD9 monoclonal antibody was added and kept at 37° C. for 60 minutes. Next, this was treated with a 1/1000 dilution of an enzyme (HRP)-labeled anti-mouse IgG polyclonal antibody at 37 °C. for 60 minutes, and 100 μl/well of an HRP-coloration substrate (0.1 M phosphate buffer with pH 5, containing 0.4 mg/ml of o-phenylenediamine, 0.01% H2 O2 and 0.1 M citric acid) was added and reacted at room temperature for 15 minutes. By adding 20 μl/well of 4.5 M H2 SO4, the reaction was stopped. Then, the absorbance of the thus-reacted sample at 490 nm was measured. […]

Fibronectin = assay: Bonding of platelets to fibronectin; assay type: binding; settings: activated, paraformaldehyde-fixed platelets; plate coated with fibronectin 5 μg/ml; 37° C. 2 hours; read-out: IC50, inhibition of bonding of platelets to Fibronectin
Protocol: as §1, §2

Collagen = assay: Bonding of platelets to collagen; assay type: binding; settings: activated, paraformaldehyde-fixed platelets; plate coated with collagen 5 μg/ml; 37° C. 2 hours; read-out: IC50, inhibition of bonding of platelets to Collagen
Protocol: as §1, §2

T1 sequence (P08514 32-887 limits assumed): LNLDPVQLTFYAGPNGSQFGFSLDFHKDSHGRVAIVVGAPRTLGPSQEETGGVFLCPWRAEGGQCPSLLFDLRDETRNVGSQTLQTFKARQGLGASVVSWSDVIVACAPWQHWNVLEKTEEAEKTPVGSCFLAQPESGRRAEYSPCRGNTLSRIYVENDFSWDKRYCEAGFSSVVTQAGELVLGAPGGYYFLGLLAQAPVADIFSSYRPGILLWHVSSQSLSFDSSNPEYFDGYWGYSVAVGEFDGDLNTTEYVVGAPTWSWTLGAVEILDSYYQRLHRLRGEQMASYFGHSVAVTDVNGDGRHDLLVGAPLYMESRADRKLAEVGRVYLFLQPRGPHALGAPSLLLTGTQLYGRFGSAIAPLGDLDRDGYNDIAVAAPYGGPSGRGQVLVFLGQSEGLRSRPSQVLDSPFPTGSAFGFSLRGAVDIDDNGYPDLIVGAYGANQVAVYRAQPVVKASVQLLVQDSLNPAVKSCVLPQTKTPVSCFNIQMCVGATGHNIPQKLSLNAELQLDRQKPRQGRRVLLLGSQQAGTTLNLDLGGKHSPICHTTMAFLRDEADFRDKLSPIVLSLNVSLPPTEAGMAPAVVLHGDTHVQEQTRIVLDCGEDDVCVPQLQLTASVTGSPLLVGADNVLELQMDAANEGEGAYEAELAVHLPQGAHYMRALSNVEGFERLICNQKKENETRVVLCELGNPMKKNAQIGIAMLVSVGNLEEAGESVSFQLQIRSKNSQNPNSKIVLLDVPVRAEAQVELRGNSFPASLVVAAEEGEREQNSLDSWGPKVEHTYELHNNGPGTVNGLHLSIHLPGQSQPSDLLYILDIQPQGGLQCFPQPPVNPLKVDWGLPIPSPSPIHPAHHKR
T1 sequence (P08514 891-1039 limits assumed): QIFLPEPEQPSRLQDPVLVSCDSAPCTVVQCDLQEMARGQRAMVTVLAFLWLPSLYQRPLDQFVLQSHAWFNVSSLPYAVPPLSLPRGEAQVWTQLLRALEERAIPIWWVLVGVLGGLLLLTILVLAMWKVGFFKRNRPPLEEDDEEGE
T1 sequence (P05106 27-788): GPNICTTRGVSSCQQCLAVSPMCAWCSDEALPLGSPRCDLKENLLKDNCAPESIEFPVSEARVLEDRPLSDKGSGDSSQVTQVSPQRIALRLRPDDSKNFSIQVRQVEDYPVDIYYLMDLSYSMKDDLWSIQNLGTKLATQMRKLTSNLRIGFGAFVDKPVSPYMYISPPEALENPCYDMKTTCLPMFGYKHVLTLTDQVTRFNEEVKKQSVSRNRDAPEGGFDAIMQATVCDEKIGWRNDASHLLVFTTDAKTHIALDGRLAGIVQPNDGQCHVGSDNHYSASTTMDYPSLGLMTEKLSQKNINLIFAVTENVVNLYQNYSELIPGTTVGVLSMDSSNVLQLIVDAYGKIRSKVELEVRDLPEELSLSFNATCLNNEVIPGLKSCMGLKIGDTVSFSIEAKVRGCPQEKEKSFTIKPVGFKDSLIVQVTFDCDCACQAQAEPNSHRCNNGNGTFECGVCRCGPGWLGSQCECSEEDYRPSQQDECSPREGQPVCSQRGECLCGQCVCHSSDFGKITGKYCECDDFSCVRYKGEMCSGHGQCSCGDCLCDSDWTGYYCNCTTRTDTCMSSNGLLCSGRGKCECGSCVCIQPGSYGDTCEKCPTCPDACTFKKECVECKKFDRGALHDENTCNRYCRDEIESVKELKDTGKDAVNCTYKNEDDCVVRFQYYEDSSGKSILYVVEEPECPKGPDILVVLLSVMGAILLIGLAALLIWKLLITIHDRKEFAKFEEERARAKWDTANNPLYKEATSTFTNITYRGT

| SMILES | pIC50 [1] | pIC50 (Fibrinogen) | pIC50 (Fibronectin) | pIC50 (Collagen) |
| --- | --- | --- | --- | --- |
| O=C(O)COC1CCN(C(=O)[C@H](Cc2ccc(O)cc2)NC(=O)CCC2CCNCC2)CC1 [Compound (20), (1-(N-(3-(4-piperidyl)propanoyl)-L-tyrosyl)-4piperidyloxy)acetic acid] | 6.87 |  |  |  |
| O=C(O)CCC1CCN(C(=O)[C@H](Cc2ccc(O)cc2)NC(=O)CCC2CCNCC2)CC1 [Compound (42), 3-(1-(N-(3-(4-piperidyl)propanoyl)-L-tyrosyl)-4-piperidyl)propanoic acid] | 5.76 |  |  |  |
| O=C(O)COC1CCN(C(=O)[C@H](Cc2ccccc2)NC(=O)CCC2CCNCC2)CC1 [Compound (21), (1-(N-(3-(4-piperidyl)propanoyl)-L-phenylalanyl)-4-piperidyloxy)acetic acid] | 6.04 |  |  |  |
| O=C(O)CCC1CCN(C(=O)[C@H](Cc2ccc(O)cc2)NC(=O)COC2CCNCC2)CC1 [Compound (44), 3-(1-(N-(4-piperidyloxyacetyl)-L-tyrosyl)-4-piperidyl)propanoic acid] | 6.20 |  |  |  |
| CC[C@H](C)[C@H](NC(=O)CCC1CCNCC1)C(=O)N1CCC(OCC(=O)O)CC1 [Compound (27), (1-(N-(3-(4-piperidyl)propanoyl)-L-isoleucyl)-4-piperidyloxy)acetic acid] | 6.29 |  |  |  |
| COc1ccc(C[C@H](NC(=O)COC2CCNCC2)C(=O)N2CCC(OCC(=O)O)CC2)cc1 [Compound (15)] | 7.32 | 6.60 | 6.62 | < 4.00 |
| O=C(O)COC1CCN(C(=O)[C@H](Cc2c[nH]c3ccccc23)NC(=O)CCC2CCNCC2)CC1 [Compound (28), (1-(N-(3-(4-piperidyl)propanoyl)-L-tryptophyl)-4-piperidyloxy)acetic acid] | 6.36 |  |  |  |
| COc1ccc(C[C@H](NC(=O)CCC2CCNCC2)C(=O)N2CCC(CCC(=O)O)CC2)cc1 [Compound (35), 3-(1-(N-(3-(4-piperidyl)propanoyl)-O-methyl-L-tyrosyl)-4-piperidyl)propanoic acid] | 6.15 |  |  |  |
| O=C(O)COC1CCN(C(=O)CNC(=O)CCC2CCNCC2)CC1 [Compound (24)] | 5.62 |  |  |  |
| COc1ccc(C[C@H](NC(=O)COC2CCNCC2)C(=O)N2CCC(CCC(=O)O)CC2)cc1 [Compound (37)] | 6.93 |  |  |  |
| COc1ccc(C[C@H](NC(=O)CCC2CCNCC2)C(=O)N2CCC(OCC(=O)O)CC2)cc1 [Compound (12)] | 7.22 | 6.35 | 4.17 | < 4.00 |
| O=C(O)COC1CCN(C(=O)[C@H](Cc2ccc(O)cc2)NC(=O)COC2CCNCC2)CC1 [Compound (19), (1-(N-(4-piperidyloxyacetyl)-L-tyrosyl)-4-piperidyloxy)acetic acid] | 7.21 |  |  |  |
| CC(C)[C@H](NC(=O)CCC1CCNCC1)C(=O)N1CCC(OCC(=O)O)CC1 [Compound (22), (1-(N-(3-(4-piperidyl)propanoyl)-L-valyl)-4-piperidyloxy)acetic acid] | 5.96 |  |  |  |
| O=C(O)COC1CCN(C(=O)[C@@H]2CCCN2C(=O)CCC2CCNCC2)CC1 [Compound (25), (1-(N-(3-(4-piperidyl)propanoyl)-L-prolyl)-4-piperidyloxy)acetic acid] | 6.50 |  |  |  |
| O=C(O)COC1CCN(C(=O)[C@H](CO)NC(=O)CCC2CCNCC2)CC1 [Compound (29), (1-(N-(3-(4-piperidyl)propanoyl)-L-seryl)-4-piperidyloxy)acetic acid] | 6.05 |  |  |  |
| COc1ccc(C[C@H](NC(=O)CCCC2CCNCC2)C(=O)N2CCC(OCC(=O)O)CC2)cc1 [Compound (18), (1-(N-(4-(4-piperidyl)butanoyl)-O-methyl-L-tyrosyl)-4-piperidyloxy)acetic acid] | 6.17 | 4.20 | 5.14 | < 4.00 |
| C[C@H](NC(=O)CCC1CCNCC1)C(=O)N1CCC(OCC(=O)O)CC1 [Compound (23), (1-(N-(3-(4-piperidyl)propanoyl)-L-alanyl)-4-piperidyloxy)acetic acid] | 6.41 |  |  |  |
| CC(C)C[C@H](NC(=O)CCC1CCNCC1)C(=O)N1CCC(OCC(=O)O)CC1 [Compound (26), (1-(N-(3-(4-piperidyl)propanoyl)-L-leucyl)-4-piperidyloxy)acetic acid] | 6.03 |  |  |  |

Reference: patent US5607948A, “Dipiperidine derivatives” (Sumitomo Pharmaceuticals Co., Ltd., priority 1993, dated 1997)
